Literature values in PubChem BioAssay AID1259409 (Chemical Carcinogenesis Research Information System (CCRIS), 2018).

System: rodent chemically induced tumor inhibition, incidence and multiplicity
Assay: CCRIS tumor inhibitor studies

For `O=c1c(O)c(-c2ccc(O)c(O)c2)oc2cc(O)cc(O)c12`, the “tumour outcome (control, treated, inhibition, significance)” value (Carcinogen: 4-NITROQUINOLINE-1-OXIDE, 56-57-5, Dose [Inhibitor]: 0, 500 PPM IN DIET FOR 10 WK BEGINNING 1 WK PRIOR TO CARCINOGEN DOSE (STUDY DURATION: 32 WK), Route [Inhibitor]: ORAL, Species: RAT, Strain/Sex: F344/MALE, Target Tissue: Type of Lesion: TONGUE: CARCINOMA, Dose [Carcinogen]: 20 PPM IN DRINKING WATER FOR 8 WK, Promoter: NONE USED) is given as 9/15 (60%), 2/16 (13%), 78%, p<0.05, the “tumour outcome (control, treated, inhibition, significance)” value (Carcinogen: 4-NITROQUINOLINE-1-OXIDE, 56-57-5, Dose [Inhibitor]: 0, 500 PPM IN DIET FOR 10 WK BEGINNING 1 WK PRIOR TO CARCINOGEN DOSE (STUDY DURATION: 32 WK), Route [Inhibitor]: ORAL, Species: RAT, Strain/Sex: F344/MALE, Target Tissue: Type of Lesion: TONGUE: PAPILLOMA, Dose [Carcinogen]: 20 PPM IN DRINKING WATER FOR 8 WK, Promoter: NONE USED) is given as 4/15 (27%), 1/16 (6%), 78%, not significant and the “tumour outcome (control, treated, inhibition, significance)” value (Carcinogen: 4-NITROQUINOLINE-1-OXIDE, 56-57-5, Dose [Inhibitor]: 0, 500 PPM IN DIET FOR 22 WK BEGINNING 1 WK POST CARCINOGEN TREATMENT (STUDY DURATION: 32 WK), Route [Inhibitor]: ORAL, Species: RAT, Strain/Sex: F344/MALE, Target Tissue: Type of Lesion: TONGUE: CARCINOMA, Dose [Carcinogen]: 20 PPM IN DRINKING WATER FOR 8 WK, Promoter: NONE USED) is given as 9/15 (60%), 1/15 (7%), 88%, p<0.05. The “tumour outcome (control, treated, inhibition, significance)” value (Carcinogen: 4-NITROQUINOLINE-1-OXIDE, 56-57-5, Dose [Inhibitor]: 0, 500 PPM IN DIET FOR 22 WK BEGINNING 1 WK POST CARCINOGEN TREATMENT (STUDY DURATION: 32 WK), Route [Inhibitor]: ORAL, Species: RAT, Strain/Sex: F344/MALE, Target Tissue: Type of Lesion: TONGUE: PAPILLOMA, Dose [Carcinogen]: 20 PPM IN DRINKING WATER FOR 8 WK, Promoter: NONE USED) was 4/15 (27%), 1/15 (7%), 74%, not significant, the “tumour outcome (control, treated, inhibition, significance)” value (Carcinogen: 7,12-DIMETHYLBENZ[A]ANTHRACENE, 57-97-6, Dose [Inhibitor]: 0, 0.2 ML OF A 1% SOLUTION 1/D FOR 2 WK APPLIED 5 MIN POST EACH CARCINOGEN DOSE THEN 1/D FOR 4 WK DURING PROMOTION STAGE, Route [Inhibitor]: DERMAL, Species: MOUSE, Strain/Sex: SWISS/MALE, Target Tissue: Type of Lesion: SKIN: PAPILLOMA, Dose [Carcinogen]: 0.2 ML OF A 0.24% SOLUTION IN DMSO 1/D FOR 2 WK, Promoter: CROTON OIL, 8001-28-3) was 23/23 (100%), 8/24 (33%), 67%, not calculated and the “tumour outcome (control, treated, inhibition, significance)” value (Carcinogen: 7,12-DIMETHYLBENZ[A]ANTHRACENE, 57-97-6, Dose [Inhibitor]: 0, 0.2 ML OF A 1% SOLUTION 1/D FOR 2 WK APPLIED 5 MIN PRIOR TO EACH CARCINOGEN DOSE (STUDY DURATION: 20 WK), Route [Inhibitor]: DERMAL, Species: MOUSE, Strain/Sex: SWISS/MALE, Target Tissue: Type of Lesion: SKIN: PAPILLOMA, Dose [Carcinogen]: 0.2 ML OF A 0.24% SOLUTION IN DMSO 1/D FOR 2 WK, Promoter: CROTON OIL, 8001-28-3) was 23/23 (100%), 20/24 (83%), 17%, not calculated. The “tumour outcome (control, treated, inhibition, significance)” value (Carcinogen: 7,12-DIMETHYLBENZ[A]ANTHRACENE, 57-97-6, Dose [Inhibitor]: 0, 3% IN DIET FOR 28 WK (STUDY DURATION: 28 WK), Route [Inhibitor]: ORAL, Species: RAT, Strain/Sex: SPRAGUE-DAWLEY/FEMALE, Target Tissue: Type of Lesion: MAMMARY GLAND: CARCINOMA, Dose [Carcinogen]: 10 MG/100 G BW ONCE) was 16/21 (76%), 10/22 (46%), 39% p<0.05, the “tumour outcome (control, treated, inhibition, significance)” value (Carcinogen: 7,12-DIMETHYLBENZ[A]ANTHRACENE, 57-97-6, Dose [Inhibitor]: 1.0% IN POWDERED DIET BEGINNING 1 WK POST CARCINOGEN DOSE FOR 51 WK (STUDY DURATION: 52 WK), Route [Inhibitor]: ORAL, Species: RAT, Strain/Sex: SPRAGUE-DAWLEY/FEMALE, Target Tissue: Type of Lesion: EAR DUCT: BENIGN TUMOR, Dose [Carcinogen]: 2.5 MG/100 G BW IN 0.5 ML SESAME OIL ONCE, Promoter: NONE USED) was 7/19 (37%), 4/18 (22%), 40%, not calculated and the “tumour outcome (control, treated, inhibition, significance)” value (Carcinogen: 7,12-DIMETHYLBENZ[A]ANTHRACENE, 57-97-6, Dose [Inhibitor]: 1.0% IN POWDERED DIET BEGINNING 1 WK POST CARCINOGEN DOSE FOR 51 WK (STUDY DURATION: 52 WK), Route [Inhibitor]: ORAL, Species: RAT, Strain/Sex: SPRAGUE-DAWLEY/FEMALE, Target Tissue: Type of Lesion: MAMMARY GLAND: CARCINOMA, Dose [Carcinogen]: 2.5 MG/100 G BW IN 0.5 ML SESAME OIL ONCE, Promoter: NONE USED) was 6/19 (32%), 4/18 (22%), 30%, not calculated. The “tumour outcome (control, treated, inhibition, significance)” value (Carcinogen: 7,12-DIMETHYLBENZ[A]ANTHRACENE, 57-97-6, Dose [Inhibitor]: 1.0% IN POWDERED DIET BEGINNING 1 WK POST CARCINOGEN DOSE FOR 51 WK (STUDY DURATION: 52 WK), Route [Inhibitor]: ORAL, Species: RAT, Strain/Sex: SPRAGUE-DAWLEY/FEMALE, Target Tissue: Type of Lesion: MAMMARY GLAND: FIBROADENOMA, Dose [Carcinogen]: 2.5 MG/100 G BW IN 0.5 ML SESAME OIL ONCE, Promoter: NONE USED) was 15/19 (79%), 8/18 (44%), 44%, not calculated and the “tumour outcome (control, treated, inhibition, significance)” value (Carcinogen: 7,12-DIMETHYLBENZ[A]ANTHRACENE, 57-97-6, Dose [Inhibitor]: 30 UMOL 2 D/WK FOR 18 WK APPLIED 30-40 MIN PRIOR TO AND CONCURRENT WITH EACH PROMOTER TREATMENT BEGINNING 10 D POST CARC, Route [Inhibitor]: DERMAL, Species: MOUSE, Strain/Sex: CD-1/FEMALE, Target Tissue: Type of Lesion: SKIN: PAPILLOMA, Dose [Carcinogen]: 200 NMOL ONCE, Promoter: 12-O-TETRADECANOYLPHORBOL-13-ACETATE, 16561-29-8) was 95%, 62%, 35%, not calculated.
